Here are results for 9 compounds from patent US8119750B2, “Explosion taming surfactants for the production of perfluoropolymers” (3M Innovative Properties Company, priority 2006, dated 2012).

Marks after values point to notes of the source that are not given here.

The first series can be described thus: Determination of bio-accumulation: urinary clearance pharmacokinetic study in rats. The note with it: male Sprague Dawley rats, 73 micro Moles per kg oral gavage, urine by fluorine NMR, exponential least squares curve fitting.
Description: The perfluorinated and partially fluorinated carboxylates were evaluated for urinary clearance using a pharmacokinetic study in rats. The goal was to measure the total amount of parent compound eliminated via urinary output and estimate the rate of elimination.
The study utilized male Sprague Dawley rats, 6 to 8 weeks of age, and approximately 200 to 250 g body weight at study onset. The test compounds of table 2 were administered at a dose of 73 micro Moles per kg body weight in rats (N=3 animals per tested compound). All test compounds were prepared in sterile deionized water and given to rats via oral gavage. After test compounds administration, the rats were housed individually in metabolism cages for urine collection: 0 to 6 hours, 6 to 24 hours, 24 to 48 hours and 72 to 96 hours. Animals were observed throughout the study for clinical signs of toxicity. Gross necropsy was performed at the termination of each study (96 hours post-dose) with sera and liver samples being retained from each animal.
The concentration of the parent compound or metabolites thereof were quantitatively measured via fluorine NMR on each urine sample for each animal at each time point based on internally added standards.
With `N.O=C(O)C(F)(F)C(F)OC(F)(F)C(F)(F)C(F)(F)OC(F)(F)F` (stereo not drawn) [Compound 1, CF3—O—CF2—CF2—CF2—O—CHF—CF2—COONH4], the “T ½ (h) (renal half-life)” value is recorded as 12 h.

With `N.O=C(O)C(F)OC(F)(F)C(F)(F)C(F)(F)OC(F)(F)F` (stereo not drawn) [Compound 2, CF3—O—CF2—CF2—CF2—O—CHF—COONH4], the “T ½ (h) (renal half-life)” value is 11 h.

On to `N.O=C(O)C(F)(F)C(F)OC(F)(F)C(F)(F)C(F)(F)F` (stereo not drawn) [Compound 3, C3F7—O—CFH—CF2COONH4], for which the “T ½ (h) (renal half-life)” value was 11 h.

Turning to `N.O=C(O)C(F)(F)C(F)(F)C(F)(F)C(F)(F)C(F)(F)OC(F)C(F)(F)F` (stereo not drawn) [Compound 4, CF3—CFH—O—(CF2)5—COONH4], the “T ½ (h) (renal half-life)” value is given as 24 h.

Consider `N.O=C(O)C(F)(F)C(F)(F)C(F)(F)OC(F)C(F)(F)F` (stereo not drawn) [Compound 5, CF3—CFH—O—(CF2)3—COONH4], for which the “T ½ (h) (renal half-life)” value was determined as 8 h.

For the compound `N.O=C(O)C(F)(F)C(F)(F)C(F)(F)C(F)(F)C(F)(F)C(F)(F)C(F)(F)F` [Compound C-1, C7F15COONH4, reference compound], the “T ½ (h) (renal half-life)” value is roughly 550 h.

Consider `N.O=C(O)C(F)(F)OC(F)(F)C(F)(F)C(F)(F)OC(F)(F)F` [Compound C-2, CF3—O—(CF2)3—O—CF2—COONH4, reference compound], for which the “T ½ (h) (renal half-life)” value came out at 10 h.

Regarding `N.O=C(O)C(F)(F)C(F)(F)OC(F)(F)C(F)(F)C(F)(F)C(F)(F)F` [Compound C-3, C4F9—O—CF2—CF2—COONH4, reference compound], the “T ½ (h) (renal half-life)” value is on record as 31 h.

Still in this series, the particulars now being: male Sprague Dawley rats, 73 micro Moles per kg oral gavage; no parent compound observed in the urine.
Regarding `N.O=C(O)COC(F)(F)C(F)OC(F)(F)C(F)(F)C(F)(F)F` (stereo not drawn) [Compound 6, C3F7—O—CFH—CF2—O—CH2—COONH4], the “T ½ (h) (renal half-life), based on elimination of the major metabolite C3F7—O—CHFCOO−” value is 13* h.
